This data set concerns CCRIS mutagenicity, Ames/micronucleus/aberration tests. Description: CCRIS mutagenicity studies.
[1] abbreviates: Test System: AMES SALMONELLA TYPHIMURIUM, Strain/Indicator: TA98, Metabolic Activation: NONE, Method: PREINCUBATION
The mark [2] stands for this setting: Test System: AMES SALMONELLA TYPHIMURIUM, Strain/Indicator: TA100, Metabolic Activation: NONE, Method: PREINCUBATION
[3] abbreviates: Test System: AMES SALMONELLA TYPHIMURIUM, Strain/Indicator: TA1535, Metabolic Activation: NONE, Method: PREINCUBATION
Setting [4] is: Test System: AMES SALMONELLA TYPHIMURIUM, Strain/Indicator: TA1537, Metabolic Activation: NONE, Method: PREINCUBATION
[5] abbreviates: Test System: MOUSE LYMPHOMA, Strain/Indicator: L5178Y (TK+/TK-), Metabolic Activation: NONE, Method: SUSPENSION/PLATE.
Setting [6] is: Test System: MOUSE LYMPHOMA, Strain/Indicator: L5178Y (TK+/TK-), Metabolic Activation: RAT, LIVER, S-9, AROCLOR 1254, Method: SUSPENSION/PLATE.
[7] abbreviates: Test System: AMES SALMONELLA TYPHIMURIUM, Strain/Indicator: TA98, Metabolic Activation: RAT, LIVER, S-9, AROCLOR 1254 (10%), Method: PREINCUBATION
Setting [8] is: Test System: AMES SALMONELLA TYPHIMURIUM, Strain/Indicator: TA100, Metabolic Activation: RAT, LIVER, S-9, AROCLOR 1254 (10%), Method: PREINCUBATION
Setting [9] is: Test System: AMES SALMONELLA TYPHIMURIUM, Strain/Indicator: TA97, Metabolic Activation: NONE, Method: PREINCUBATION
Where [10] appears, read: Test System: AMES SALMONELLA TYPHIMURIUM, Strain/Indicator: TA102, Metabolic Activation: NONE, Method: PREINCUBATION

Active and inactive are the calls of the source. How the calls were made is not given here.

Results on six molecules are retold here after PubChem BioAssay AID1259407 (Chemical Carcinogenesis Research Information System (CCRIS), 2018).

Turning to `CCCCC1C(=O)N(c2ccccc2)N(c2ccccc2)C1=O`, the mutagenic call runs as follows: (End Point: IN VITRO CHROMOSOMAL ABERRATIONS, Test System: CHINESE HAMSTER OVARY CELLS, Metabolic Activation: NONE) “inactive; negative”; (End Point: IN VITRO CHROMOSOMAL ABERRATIONS, Test System: CHINESE HAMSTER OVARY CELLS, Metabolic Activation: RAT, LIVER, S-9, AROCLOR 1254) “active; positive”; (Test System: AMES SALMONELLA TYPHIMURIUM, Strain/Indicator: TA97A, Metabolic Activation: NONE, Method: STANDARD PLATE) “inactive; negative”; (Test System: AMES SALMONELLA TYPHIMURIUM, Strain/Indicator: TA97A, Metabolic Activation: RAT LIVER S-9, PHENOBARBITAL, Method: STANDARD PLATE) “inactive; negative”; (Test System: AMES SALMONELLA TYPHIMURIUM, Strain/Indicator: TA98, Metabolic Activation: HAMSTER, LIVER, S-9, AROCLOR 1254, Method: PREINCUBATION) “inactive; negative”; under setting [1], “inactive; negative”. Also, the mutagenic call was “inactive; negative” (Test System: AMES SALMONELLA TYPHIMURIUM, Strain/Indicator: TA98, Metabolic Activation: NONE, Method: STANDARD PLATE); “inactive; negative” (Test System: AMES SALMONELLA TYPHIMURIUM, Strain/Indicator: TA98, Metabolic Activation: RAT LIVER S-9, PHENOBARBITAL, Method: STANDARD PLATE); “inactive; negative” (Test System: AMES SALMONELLA TYPHIMURIUM, Strain/Indicator: TA98, Metabolic Activation: RAT, LIVER, S-9, AROCLOR 1254, Method: PREINCUBATION); “inactive; negative” (Test System: AMES SALMONELLA TYPHIMURIUM, Strain/Indicator: TA100, Metabolic Activation: HAMSTER, LIVER, S-9, AROCLOR 1254, Method: PREINCUBATION); “inactive; negative” under setting [2]; “inactive; negative” (Test System: AMES SALMONELLA TYPHIMURIUM, Strain/Indicator: TA100, Metabolic Activation: NONE, Method: STANDARD PLATE). Moreover, the mutagenic call reads like this: (Test System: AMES SALMONELLA TYPHIMURIUM, Strain/Indicator: TA100, Metabolic Activation: RAT LIVER S-9 PHENOBARBITAL, Method: STANDARD PLATE) “inactive; negative”; (Test System: AMES SALMONELLA TYPHIMURIUM, Strain/Indicator: TA100, Metabolic Activation: RAT, LIVER, S-9, AROCLOR 1254, Method: PREINCUBATION) “inactive; negative”; (Test System: AMES SALMONELLA TYPHIMURIUM, Strain/Indicator: TA102, Metabolic Activation: NONE, Method: STANDARD PLATE) “inactive; negative”; (Test System: AMES SALMONELLA TYPHIMURIUM, Strain/Indicator: TA102, Metabolic Activation: RAT LIVER S-9, PHENOBARBITAL, Method: STANDARD PLATE) “inactive; negative”; (Test System: AMES SALMONELLA TYPHIMURIUM, Strain/Indicator: TA1535, Metabolic Activation: HAMSTER, LIVER, S-9, AROCLOR 1254, Method: PREINCUBATION) “inactive; negative”; under setting [3], “inactive; negative”. Moreover, the mutagenic call was “inactive; negative” (Test System: AMES SALMONELLA TYPHIMURIUM, Strain/Indicator: TA1535, Metabolic Activation: RAT, LIVER, S-9, AROCLOR 1254, Method: PREINCUBATION); “inactive; negative” (Test System: AMES SALMONELLA TYPHIMURIUM, Strain/Indicator: TA1537, Metabolic Activation: HAMSTER, LIVER, S-9, AROCLOR 1254, Method: PREINCUBATION); “inactive; negative” under setting [4]; “inactive; negative” (Test System: AMES SALMONELLA TYPHIMURIUM, Strain/Indicator: TA1537, Metabolic Activation: RAT, LIVER, S-9, AROCLOR 1254, Method: PREINCUBATION); “active; positive” under setting [5]; “active; positive” under setting [6].
For `c1cnc2c(c1)ccc1cccnc12`, the mutagenic call is, setting by setting: (Test System: AMES SALMONELLA TYPHIMURIUM, Strain/Indicator: TA98, Metabolic Activation: HAMSTER, LIVER, S-9, AROCLOR 1254 (10%), Method: PREINCUBATION) “inactive; negative”; under setting [1], “inactive; negative”; under setting [7], “inactive; negative”; (Test System: AMES SALMONELLA TYPHIMURIUM, Strain/Indicator: TA100, Metabolic Activation: HAMSTER, LIVER, S-9, AROCLOR 1254 (10%), Method: PREINCUBATION) “inactive; negative”; under setting [2], “inactive; negative”; under setting [8], “inactive; negative”. For the same molecule, the mutagenic call (Test System: AMES SALMONELLA TYPHIMURIUM, Strain/Indicator: TA100, Metabolic Activation: RAT, LIVER, S-9, PHENOBARBITAL AND 5,6-BENZOFLAVONE, Method: PREINCUBATION) is “inactive; negative”; the mutagenic call (Test System: AMES SALMONELLA TYPHIMURIUM, Strain/Indicator: TA1535, Metabolic Activation: HAMSTER, LIVER, S-9, AROCLOR 1254 (10%), Method: PREINCUBATION) was “inactive; negative”; the mutagenic call under setting [3] is “inactive; negative”; the mutagenic call (Test System: AMES SALMONELLA TYPHIMURIUM, Strain/Indicator: TA1535, Metabolic Activation: RAT, LIVER, S-9, AROCLOR 1254 (10%), Method: PREINCUBATION) was “inactive; negative”; the mutagenic call (Test System: AMES SALMONELLA TYPHIMURIUM, Strain/Indicator: TA1537, Metabolic Activation: HAMSTER, LIVER, S-9, AROCLOR 1254 (10%), Method: PREINCUBATION) was “inactive; negative”; the mutagenic call under setting [4] was “inactive; negative”. Also, the mutagenic call is “inactive; negative” (Test System: AMES SALMONELLA TYPHIMURIUM, Strain/Indicator: TA1537, Metabolic Activation: RAT, LIVER, S-9, AROCLOR 1254 (10%), Method: PREINCUBATION); “active; positive. reevaluation of results: positive” under setting [5]; “active; positive. reevaluation of results: positive” under setting [6].
With `Cc1c2ccccc2cc2c3c(ccc12)[C@@H](O)[C@H](O)C=C3`, the mutagenic call (Test System: CHINESE HAMSTER V-79, Strain/Indicator: V-79/8-AZAGUANINE, Metabolic Activation: NONE, Method: STANDARD PLATE) was “active; positive”.
For `O.O.O=C([O-])[C@H](O)[C@@H](O)[C@H](O)[C@H](O)CO.O=C([O-])[C@H](O)[C@@H](O)[C@H](O)[C@H](O)CO.[Fe+2]`, the mutagenic call under setting [9] was “inactive; negative”; the mutagenic call (Test System: AMES SALMONELLA TYPHIMURIUM, Strain/Indicator: TA97, Metabolic Activation: RAT, LIVER, S-9, AROCLOR 1254, Method: PREINCUBATION) is “inactive; negative”; the mutagenic call under setting [10] was “inactive; negative”; the mutagenic call (Test System: AMES SALMONELLA TYPHIMURIUM, Strain/Indicator: TA102, Metabolic Activation: RAT, LIVER, S-9, AROCLOR 1254, Method: PREINCUBATION) is “inactive; negative”.
As for `O=c1c2[nH]c3ccccc3c2nnn1/N=C/c1ccc(O)cc1`, the mutagenic call was “active; positive” under setting [9]; “active; positive” (Test System: AMES SALMONELLA TYPHIMURIUM, Strain/Indicator: TA97, Metabolic Activation: RAT, LIVER, S-9, AROCLOR 1254 (10%), Method: PREINCUBATION); “active; positive” under setting [1]; “active; positive” under setting [7]; “active; positive” under setting [2]; “active; positive” under setting [8]. Also, the mutagenic call reads like this: under setting [10], “active; positive”; (Test System: AMES SALMONELLA TYPHIMURIUM, Strain/Indicator: TA102, Metabolic Activation: RAT, LIVER, S-9, AROCLOR 1254 (10%), Method: PREINCUBATION) “active; positive”.
As to `c1ccc2c(c1)-c1cccc3c1c-2cc1c2ccccc2ccc31`, under “Test System: HUMAN H1A1V2 CELLS, Strain/Indicator: TK LOCUS, Metabolic Activation: NONE, Method: SUSPENSION/PLATE”, the mutagenic call is “inactive; negative”.
